Experiment [1] concerns the target T1, AOS (Parthenium argentatum, UniProt Q40778).
T1 sequence (Q40778 1-473): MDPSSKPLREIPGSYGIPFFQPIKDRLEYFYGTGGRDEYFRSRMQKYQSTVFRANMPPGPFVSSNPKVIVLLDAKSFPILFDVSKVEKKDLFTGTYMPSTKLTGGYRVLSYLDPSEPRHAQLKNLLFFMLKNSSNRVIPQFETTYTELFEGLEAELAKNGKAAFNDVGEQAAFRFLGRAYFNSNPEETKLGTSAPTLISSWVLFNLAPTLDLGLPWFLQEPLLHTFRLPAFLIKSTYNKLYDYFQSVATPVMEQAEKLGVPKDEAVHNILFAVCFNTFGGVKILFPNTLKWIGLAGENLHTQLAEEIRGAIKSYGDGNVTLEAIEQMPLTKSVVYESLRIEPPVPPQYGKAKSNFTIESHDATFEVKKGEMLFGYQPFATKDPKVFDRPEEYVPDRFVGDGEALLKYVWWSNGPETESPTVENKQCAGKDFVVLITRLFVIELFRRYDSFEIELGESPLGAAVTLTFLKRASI
Briefly: Fluorescence spectroscopy of rubber particles incubated with AOS inhibitors. The note with it: native rubber particles incubated with 1 mM inhibitor. Type of experiment: biochemical, guayule. The arrangement: from tissue; host or cells: washed rubber particles of guayule, carrying the endogenous AOS. Here is the method: Rubber particle suspensions containing approximately 5×10^10 particles ml^-1 or 100 μg μl^-1 rubber were extracted for lipids and analyzed according to Yao et al., J Cell Biochem 51: 488-494 (1993); Eldred, Anal. Biochem. 64: 23-36 (1987), Malshet et al., Lipids 9: 328-332 (1974) and above (see sec. 8.1) using a FluoroMax spectrofluoromoeter (JY/SPEX Instruments SA, Inc.) with an excitation maxima of 300 nm and an emission maxima of 405 nm. Background fluorescence was automatically subtracted. […] The effect of pH on relative fluorescence spectroscopy was performed. The effect of pH on relative fluorescence intensities was also determined on lipids extracted from rubber particle lipids according to Malshet et al., Lipids 9: 328-332 (1974).

Experiment [2] deals with T1, AOS. Briefly: Conjugated dienes in lipids extracted from rubber particles incubated with H2O2 (A234). Type of experiment: biochemical, guayule. The arrangement: from tissue; host or cells: washed rubber particles of guayule, carrying the endogenous AOS. The note with it: 1 mM inhibitor, 0.05% H2O2. The source says: Lipids from these particles were extracted and analyzed spectrophotometrically at 234 nm according to Aust, Lipid peroxidation, In: Greenwald R (ed) CRC Handbook of Methods for Oxygen Radical Research, CRC Press, Boca Raton, pp. 203-207 (1985).

For experiment [3], the system named is linoleic acid conjugated dienes. The experiment can be described thus: UV spectrophotometry of superoxide-induced linoleic acid conjugated dienes (A234). The experiment is classed as biochemical, guayule. The following applies: AOS preincubated with 1 mM ASA, then linoleic acid + riboflavin/TEMED. Here is the method: Likewise, the effect of superoxide, produced by the riboflavin/TEMED mixture and light, on lipid peroxidation was determined. […] The mixture was exposed to light and scanned in a UV spectrophotometer at 200 to 300 nm at 10 sec intervals for 2 minutes and again at 5 and 10 min. The effect of AOS on superoxide-inducedlinoleic hydroperoxides was determined using partially pure AOS solubilized from fresh rubber particles using the CHAPS extraction and filtration procedure (Pan et al., J Biol Chem 270: 8487-8494, 1995), which removed all remaining rubber. One μg partially pure AOS was added to oxidized linoleic acid and UV scanned at 2 minute intervals.
This mixture was scanned at A234 followed by addition of riboflavin/TEMED and exposure to 10 min. of light, to produce superoxide. The mixture was rescanned at 10 min intervals.

The target in experiment [4] is T1, AOS. The following applies: for fluorescence over 24 hr, AOS inhibited and antioxidant present: rubber particles, 1 mM ASA plus 1% antioxidant.
In another experiment the test system is rubber transferase (RuT). The experiment can be described thus: Rubber transferase assay in washed rubber particles ([14C]-IPP incorporation). The experiment is classed as biochemical, guayule. The arrangement: inhibition of RuT activity / inhibition of rubber biosynthesis: concentration or dose not given beside the values. Here is the method:
RuT assays were performed according to Cornish and Backhaus, Phytochemistry 29: 3809-3813 (1990) using a final reaction volume of 500 μl containing, at final concentration, 3.5 mM MgCl2, 2.5 mM MnCl2 26.7 μM FPP, 85 μM IPP and 1.48 μCi[^14 C]-IPP (sp. act. 57 mCi mM^-1 NEN DuPont) in 50 mM potassium phosphate buffer, pH 8.0. The reaction was initiated by the addition of 200 μl of fresh, triple-washed rubber particle suspensions containing 10-20 mg rubber. Control reactions were made to test IPP incorporation into rubber by omitting FPP or adding 50 mM EDTA to the reaction (Cornish and Backhaus, Phytochem. 29: 3809-3813 (1990)). To control AOS activity, one or more of the following was added to the reaction mix (final concentration): 0.5 to 2 mM SA, 0.5 to 2 mM ASA, 11.2 μM riboflavin plus 11.2 mM TEMED, 0.003% H2 O2, 2.0 U type II porcine pancreatic lipase (Sigma #L-3126) or 9450 U type V soybean lipoxygenase (Sigma #L-6632). These additions were made directly to the washed rubber particles and incubated for 20 min before adding to them to the reaction mix. In reactions that required dark conditions (to prevent the formation of superoxide), assay tubes were foil wrapped. […] H2 O2 was added directly to the particles and incubated for at least 20 min before adding SA or ASA. All RuT assays were run at 15° C. for 16 hours and activity was determined according to Cornish and Backhaus, Phytochemistry 29: 3809-3813 (1990) using liquid scintillation spectroscopy with toluene-based scintillant.

In experiment [5] the target is T1, AOS. Briefly: Superoxide/colorimetry (riboflavin/TEMED/NBT) assay. The following applies: for NBT color after superoxide: rubber particles incubated with inhibitor.
Description: A 1-5 μl suspension of fatty acids or rubber particles (at 100 μg μl^-1) was added directly to 200 μl 50 mM potassium phosphate buffer, pH 8.0 containing 2.8 μM riboflavin and 28 mM tetramethyllethylenediamine (TEMED). […] Superoxide was generated by exposing the combined particles and riboflavin/TEMED solution to light, provided by a 100 W bulb, spaced 30 cm from the suspension, for 10 minutes. The degree of reduction was then determined by adding 200 μl 50 mM potassium phosphate buffer, pH 8.0 containing 2.45 mM nitroblue tetrazolium (NBT) and monitoring for 10 min. Reduction of NBT caused a yellow to blue color change. The effect of CO on AOS inhibition and its reversal by exposure to high light was tested by placing the CO and O2 treated suspension directly in front of a water-cooled, slide projector lamp and exposing the mixture to bright light for 1, 5 or 10 min before performing the NBT assay.
If SOD is present, NBT remains yellow. […] If AOS were active, rubber particles would be protected from peroxidation and NBT would be reduced by superoxide resulting in a blue color. However, if AOS were inactivated, then rubber particles would act as a sink for superoxide and NBT would not be reduced to blue tetrasodium,or would be reduced at a slower rate. For this assay to work, endogenous SOD must not be present in rubber particles.
Where [6] appears, read: salicylate + H2O2 in place of superoxide.
Where [7] appears, read: salicylate + non-photoreduced riboflavin/TEMED (no superoxide), compared to controls.
[8] abbreviates: salicylate + superoxide (riboflavin/TEMED plus light).

Where “and” joins values, the source holds several entries; their conditions need not be identical. Identical values can stand only once.

As to `O=C(O)c1cc(S(=O)(=O)O)ccc1O` [5SSA, 5-sulfosalicylic acid], on AOS [1], the “fluorescence of rubber particles” value is on record as “did not fluoresce”.

`CC(=O)Oc1ccccc1C(=O)O` [ASA, acetylsalicylic acid]: on AOS [2], the “conjugated diene formation in extracted lipids (A234)” value is listed as “Conjugated dienes formed only when AOS was inhibited by ASA in the presence of H2 O2”. The “A234 on exposure to superoxide, AOS first incubated with inhibitor” value in experiment [3] was “notable increase in A234”. Besides, the “fluorescence of rubber particles” value on AOS [1] is “striking increase in fluorescence”. Besides, the “fluorescence over 24 hr” value at AOS [4] (rubber particles in presence of 1 mM ASA) was “fluorescence increased up to 12 hours and then plateaued”. The RuT activity was 599.3 ± 11.8 nmol IPP mg^-1 dry rubber 16 hr^-1 in the experiment with rubber transferase (RuT) (0.5 mM inhibitor, riboflavin/TEMED + dark (no superoxide)) and 421.6 ± 105.4 nmol IPP mg^-1 dry rubber 16 hr^-1 in the experiment with rubber transferase (RuT) (1 mM inhibitor, riboflavin/TEMED + dark (no superoxide)). The “inhibition of RuT activity” value in the experiment with rubber transferase (RuT) (setting [6]) was found to be 89%; in the experiment with rubber transferase (RuT) (setting [7]), 20%; in the experiment on rubber transferase (RuT) (setting [8]), 88%. Moreover, the “NBT color after superoxide” value on AOS [5] is reported as “yellow”.

Regarding `Cc1cc(C(C)(C)C)c(O)c(C(C)(C)C)c1` [BHT], the “fluorescence over 24 hr, AOS inhibited and antioxidant present” value at AOS [4] is “slight increase in fluorescence”.

As to `[C-]#[O+]` [CO, carbon monoxide], the “restoration of AOS activity” value on AOS [5] (CO-bound-AOS in rubber particles, high light 1 min) is given as “partial restoration of AOS”; on AOS [5] (CO-bound-AOS in rubber particles, high light 5 min) it was “maximum restoration of AOS activity”. Besides, the AOS activity result at AOS [5] (CO-bound-AOS in rubber particles, more than 5 min high light) is “reduction in AOS activity”. The “NBT color when CO inhibition was reversed by strong light” value on AOS [5] (CO-treated rubber particles, strong light) is recorded as “grayish yellow”. On AOS [5], the “NBT color after superoxide” value is given as “yellow”.

As for `O=C(O)c1ccccc1O` [SA, salicylic acid], the “fluorescence of rubber particles” value on AOS [1] is on record as “Identical fluorescence patterns”. In addition, the “drop in RuT activity” value in the experiment on rubber transferase (RuT) (1 mM SA alone, 960 min) is given as 10-30%. The RuT activity with rubber transferase (RuT) (1 mM SA alone, Experiment 1) was 402.5 ± 18.2 nmol IPP mg^-1 dry rubber 16 hr^-1; in the experiment on rubber transferase (RuT) (1 mM SA alone, Experiment 2), 320.4 ± 4.5 nmol IPP mg^-1 dry rubber 16 hr^-1; in the experiment on rubber transferase (RuT) (1 mM SA alone, Experiment 3), 315.9 ± 10.6 nmol IPP mg^-1 dry rubber 16 hr^-1; with rubber transferase (RuT) (1 mM inhibitor, riboflavin/TEMED + light (superoxide)), 74.2 ± 1.29 nmol IPP mg^-1 dry rubber 16 hr^-1 and 98.3 ± 1.56 nmol IPP mg^-1 dry rubber 16 hr^-1 and 74.2 ± 1.3 nmol IPP mg^-1 dry rubber 16 hr^-1; in the experiment with rubber transferase (RuT) (1.5 mM inhibitor, no superoxide (dark)), 236.7 ± 3.0 nmol IPP mg^-1 dry rubber 16 h; with rubber transferase (RuT) (1.5 mM inhibitor, superoxide (light)), 105.3 ± 3.2 nmol IPP mg^-1 dry rubber 16 h. Also, the RuT activity result is listed as “severely inhibited” in the experiment with rubber transferase (RuT) (2 mM SA, photo reduced and non-photo reduced riboflavin/TEMED); 25.1 ± 1.2 nmol IPP mg^-1 dry rubber 16 h in the experiment on rubber transferase (RuT) (2 mM inhibitor, no superoxide (dark)); 18.5 ± 9.24 nmol IPP mg^-1 dry rubber 16 hr^-1 in the experiment on rubber transferase (RuT) (2 mM inhibitor, superoxide (light)). For the same molecule, the “inhibition of RuT activity” value with rubber transferase (RuT) (setting [6]) is given as 89%; in the experiment with rubber transferase (RuT) (setting [7]), 20%; with rubber transferase (RuT) (setting [8]) it was 88%. Further, the “NBT color after superoxide” value on AOS [5] is recorded as “yellow”.

For `OCc1ccccc1O[C@@H]1O[C@H](CO)[C@@H](O)[C@H](O)[C@H]1O` [SAL, salicin], the “fluorescence of rubber particles” value on AOS [1] is “did not fluoresce”.

`Cc1c(C)c2c(c(C)c1O)CCC(C)(CCCC(C)CCCC(C)CCCC(C)C)O2` (stereo not drawn) [α-tocopherol]: the “fluorescence over 24 hr, AOS inhibited and antioxidant present” value on AOS [4] is “slight increase in fluorescence”.

B1: lipoxygenase: type V soybean lipoxygenase (Sigma #L-6632) (protein, UniProt P08170 1-839, looked up)
Seed linoleate …: MFSAGHKIKGTVVLMPKNELEVNPDGSAVDNLNAFLGRSVSLQLISATKADAHGKGKVGKDTFLEGINTSLPTLGAGESAFNIHFEWDGSMGIPGAFYIKNYMQVEFFLKSLTLEAISNQGTIRFVCNSWVYNTKLYKSVRIFFANHTYVPSETPAPLVSYREEELKSLRGNGTGERKEYDRIYDYDVYNDLGNPDKSEKLARPVLGGSSTFPYPRRGRTGRGPTVTDPNTEKQGEVFYVPRDENLGHLKSKDALEIGTKSLSQIVQPAFESAFDLKSTPIEFHSFQDVHDLYEGGIKLPRDVISTIIPLPVIKELYRTDGQHILKFPQPHVVQVSQSAWMTDEEFAREMIAGVNPCVIRGLEEFPPKSNLDPAIYGDQSSKITADSLDLDGYTMDEALGSRRLFMLDYHDIFMPYVRQINQLNSAKTYATRTILFLREDGTLKPVAIELSLPHSAGDLSAAVSQVVLPAKEGVESTIWLLAKAYVIVNDSCYHQLMSHWLNTHAAMEPFVIATHRHLSVLHPIYKLLTPHYRNNMNINALARQSLINANGIIETTFLPSKYSVEMSSAVYKNWVFTDQALPADLIKRGVAIKDPSTPHGVRLLIEDYPYAADGLEIWAAIKTWVQEYVPLYYARDDDVKNDSELQHWWKEAVEKGHGDLKDKPWWPKLQTLEDLVEVCLIIIWIASALHAAVNFGQYPYGGLIMNRPTASRRLLPEKGTPEYEEMINNHEKAYLRTITSKLPTLISLSVIEILSTHASDEVYLGQRDNPHWTSDSKALQAFQKFGNKLKEIEEKLVRRNNDPSLQGNRLGPVQLPYTLLYPSSEEGLTFRGIPNSISI
For B1, the RuT activity entry in the experiment with rubber transferase (RuT) (lipoxygenase alone) is reported as “activity similar to positive controls”; with rubber transferase (RuT) (lipoxygenase alone, listed as Lipoxygenase) it was “did not appear to affect RuT activity”. The “inhibition of rubber biosynthesis” value in the experiment on rubber transferase (RuT) (lipoxygenase treatment and AOS inhibition) is recorded as 30%.

Values taken from patent US6132711A, “Enzymatic antioxidant of allene oxide for lipid peroxidation in biological systems” (Arizona Board of Regents, priority 1997, dated 2000).
